In PMC11999280, “Design and screening of novel endosomal escape compounds that enhance functional delivery of oligonucleotides in vitro” (Molecular Therapy. Nucleic Acids, 2025):

Experiments:
Assay type in all cases: cell-based
[1] = test system: mCherry-GAL9 expressing 16HBE cells; test: GAL9 recruitment assay, 16HBE; details: calculated mean from >3 independent exp.
Summary of the method: (§1)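 Stable 8× mCherry-GAL9 cell lines seeded 24 h before acoustic dose-response compound addition; endpoint cells fixed with 4% paraformaldehyde, Hoechst-stained. Spinning-disk confocal imaging (×20 water objective) with image-based identification and quantification of mCherry-GAL9 structures as endosomal remodeling read-out. N = 3 experiments, duplicate wells.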

[2] = test system: mCherry-GAL9 expressing HEK293 cells; test: GAL9 recruitment assay, HEK293; details: calculated mean from >3 independent exp.
Summary of the method: as §1

[3] = test system: mCherry-GAL9 expressing HeLa cells; test: GAL9 recruitment assay, HeLa; details: calculated mean from >3 independent exp.
Summary of the method: as §1

[4] = test system: mCherry-GAL9 expressing HepG2 cells; test: GAL9 recruitment assay, HepG2; details: calculated mean from >3 independent exp.
Summary of the method: as §1

[5] = test system: mCherry-GAL9 expressing HuH7 cells; test: GAL9 recruitment assay, HuH7; details: calculated mean from >3 independent exp.
Summary of the method: as §1

[6] = test system: mCherry-GAL9 expressing NCI-H358 cells; test: GAL9 recruitment assay, NCI-H358; details: calculated mean from >3 independent exp.
Summary of the method: as §1

[7] = test system: mCherry-GAL9 expressing SHSY5Y cells; test: GAL9 recruitment assay, SHSY5Y; details: calculated mean from >3 independent exp.
Summary of the method: as §1

[8] = test system: mCherry-GAL9 expressing U2OS cells; test: GAL9 recruitment assay, U2OS; details: calculated mean from >3 independent exp.
Summary of the method: as §1

[9] = test system: HeLa_Luc705 cells (pLuc/705 splice-switching reporter); test: Functional 705-SSO delivery, luciferase splice-switching assay; details: HeLa-Luc705 + 2 µM SSO, mean from >3 independent experiments
Summary of the method: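 Cells seeded at 10,000/well were pre-incubated 24 h with 1–2 μM 2′-O-methyl phosphorothioate 705-SSO, then exposed to endosomal escape enhancer at the stated concentrations. After 24 h, cells were lysed in 0.1% Triton X-100 and firefly luciferase luminescence was read as the splice-correction signal. LF2000 lipofection with 100–200 nM SSO served as transfection control.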

CCN1CCC(n2cc(Nc3ncc(F)c(-n4ccc5c(C#N)cccc54)n3)c(OC)n2)CC1 [EEE11]
Gal9 response compared to reference ([1]; EEE 0.31 µM): 0.013
Gal9 response compared to reference ([1]; EEE 0.62 µM): 0.013
Gal9 response compared to reference ([1]; EEE 1.25 µM): 0.056
Gal9 response compared to reference ([1]; EEE 2.5 µM): 0.167
Gal9 response compared to reference ([1]; EEE 5 µM): 0.507
Gal9 response compared to reference ([1]; EEE 10 µM): 0.623
Gal9 response compared to reference ([2]; EEE 0.31 µM): 0.027
Gal9 response compared to reference ([2]; EEE 0.62 µM): 0.022
Gal9 response compared to reference ([2]; EEE 1.25 µM): 0.106
Gal9 response compared to reference ([2]; EEE 2.5 µM): 0.438
Gal9 response compared to reference ([2]; EEE 5 µM): 0.779
Gal9 response compared to reference ([2]; EEE 10 µM): 0.493
Gal9 response compared to reference ([3]; EEE 0.31 µM): 0.005
Gal9 response compared to reference ([3]; EEE 0.62 µM): 0.004
Gal9 response compared to reference ([3]; EEE 1.25 µM): 0.013
Gal9 response compared to reference ([3]; EEE 2.5 µM): 0.253
Gal9 response compared to reference ([3]; EEE 5 µM): 0.553
Gal9 response compared to reference ([3]; EEE 10 µM): 0.370
Gal9 response compared to reference ([4]; EEE 0.31 µM): 0.009
Gal9 response compared to reference ([4]; EEE 0.62 µM): 0.008
Gal9 response compared to reference ([4]; EEE 1.25 µM): 0.007
Gal9 response compared to reference ([4]; EEE 2.5 µM): 0.019
Gal9 response compared to reference ([4]; EEE 5 µM): 0.163
Gal9 response compared to reference ([4]; EEE 10 µM): 0.568
Gal9 response compared to reference ([5]; EEE 0.31 µM): 0.009
Gal9 response compared to reference ([5]; EEE 0.62 µM): 0.008
Gal9 response compared to reference ([5]; EEE 1.25 µM): 0.023
Gal9 response compared to reference ([5]; EEE 2.5 µM): 0.154
Gal9 response compared to reference ([5]; EEE 5 µM): 0.258
Gal9 response compared to reference ([5]; EEE 10 µM): 0.222
Gal9 response compared to reference ([6]; EEE 0.31 µM): 0.016
Gal9 response compared to reference ([6]; EEE 0.62 µM): 0.020
Gal9 response compared to reference ([6]; EEE 1.25 µM): 0.036
Gal9 response compared to reference ([6]; EEE 2.5 µM): 0.143
Gal9 response compared to reference ([6]; EEE 5 µM): 0.614
Gal9 response compared to reference ([6]; EEE 10 µM): 0.576
Gal9 response compared to reference ([7]; EEE 0.31 µM): 0.014
Gal9 response compared to reference ([7]; EEE 0.62 µM): 0.018
Gal9 response compared to reference ([7]; EEE 1.25 µM): 0.385
Gal9 response compared to reference ([7]; EEE 2.5 µM): 0.801
Gal9 response compared to reference ([7]; EEE 5 µM): 0.691
Gal9 response compared to reference ([7]; EEE 10 µM): 0.469
Gal9 response compared to reference ([8]; EEE 0.31 µM): 0.012
Gal9 response compared to reference ([8]; EEE 0.62 µM): 0.015
Gal9 response compared to reference ([8]; EEE 1.25 µM): 0.018
Gal9 response compared to reference ([8]; EEE 2.5 µM): 0.048
Gal9 response compared to reference ([8]; EEE 5 µM): 0.317
Gal9 response compared to reference ([8]; EEE 10 µM): 0.483
Luciferase expression compared to reference ([9]; EEE 2.5 - 3 µM): 2.093

COc1nn(C2CCN(C)CC2)cc1Nc1ncc(F)c(-n2ccc3ccc(C#N)cc32)n1 [EEE14]
Gal9 response compared to reference ([1]; EEE 0.31 µM): 0.010
Gal9 response compared to reference ([1]; EEE 0.62 µM): 0.013
Gal9 response compared to reference ([1]; EEE 1.25 µM): 0.014
Gal9 response compared to reference ([1]; EEE 2.5 µM): 0.031
Gal9 response compared to reference ([1]; EEE 5 µM): 0.118
Gal9 response compared to reference ([1]; EEE 10 µM): 0.421
Gal9 response compared to reference ([2]; EEE 0.31 µM): 0.023
Gal9 response compared to reference ([2]; EEE 0.62 µM): 0.019
Gal9 response compared to reference ([2]; EEE 1.25 µM): 0.018
Gal9 response compared to reference ([2]; EEE 2.5 µM): 0.035
Gal9 response compared to reference ([2]; EEE 5 µM): 0.123
Gal9 response compared to reference ([2]; EEE 10 µM): 0.443
Gal9 response compared to reference ([3]; EEE 0.31 µM): 0.005
Gal9 response compared to reference ([3]; EEE 0.62 µM): 0.005
Gal9 response compared to reference ([3]; EEE 1.25 µM): 0.004
Gal9 response compared to reference ([3]; EEE 2.5 µM): 0.006
Gal9 response compared to reference ([3]; EEE 5 µM): 0.035
Gal9 response compared to reference ([3]; EEE 10 µM): 0.213
Gal9 response compared to reference ([4]; EEE 0.31 µM): 0.008
Gal9 response compared to reference ([4]; EEE 0.62 µM): 0.005
Gal9 response compared to reference ([4]; EEE 1.25 µM): 0.005
Gal9 response compared to reference ([4]; EEE 2.5 µM): 0.005
Gal9 response compared to reference ([4]; EEE 5 µM): 0.015
Gal9 response compared to reference ([4]; EEE 10 µM): 0.155
Gal9 response compared to reference ([5]; EEE 0.31 µM): 0.009
Gal9 response compared to reference ([5]; EEE 0.62 µM): 0.007
Gal9 response compared to reference ([5]; EEE 1.25 µM): 0.010
Gal9 response compared to reference ([5]; EEE 2.5 µM): 0.016
Gal9 response compared to reference ([5]; EEE 5 µM): 0.047
Gal9 response compared to reference ([5]; EEE 10 µM): 0.280
Gal9 response compared to reference ([6]; EEE 0.31 µM): 0.015
Gal9 response compared to reference ([6]; EEE 0.62 µM): 0.019
Gal9 response compared to reference ([6]; EEE 1.25 µM): 0.019
Gal9 response compared to reference ([6]; EEE 2.5 µM): 0.026
Gal9 response compared to reference ([6]; EEE 5 µM): 0.073
Gal9 response compared to reference ([6]; EEE 10 µM): 0.457
Gal9 response compared to reference ([7]; EEE 0.31 µM): 0.013
Gal9 response compared to reference ([7]; EEE 0.62 µM): 0.014
Gal9 response compared to reference ([7]; EEE 1.25 µM): 0.017
Gal9 response compared to reference ([7]; EEE 2.5 µM): 0.083
Gal9 response compared to reference ([7]; EEE 5 µM): 0.403
Gal9 response compared to reference ([7]; EEE 10 µM): 0.645
Gal9 response compared to reference ([8]; EEE 0.31 µM): 0.013
Gal9 response compared to reference ([8]; EEE 0.62 µM): 0.013
Gal9 response compared to reference ([8]; EEE 1.25 µM): 0.015
Gal9 response compared to reference ([8]; EEE 2.5 µM): 0.023
Gal9 response compared to reference ([8]; EEE 5 µM): 0.058
Gal9 response compared to reference ([8]; EEE 10 µM): 0.232
Luciferase expression compared to reference ([9]; EEE 2.5 - 3 µM): 0.590

CCOc1nn(C2CCN(C)CC2)cc1Nc1ncc(F)c(-n2ccc3c(C#N)cccc32)n1 [EEE13]
Gal9 response compared to reference ([1]; EEE 0.31 µM): 0.009
Gal9 response compared to reference ([1]; EEE 0.62 µM): 0.011
Gal9 response compared to reference ([1]; EEE 1.25 µM): 0.010
Gal9 response compared to reference ([1]; EEE 2.5 µM): 0.013
Gal9 response compared to reference ([1]; EEE 5 µM): 0.044
Gal9 response compared to reference ([1]; EEE 10 µM): 0.306
Gal9 response compared to reference ([2]; EEE 0.31 µM): 0.018
Gal9 response compared to reference ([2]; EEE 0.62 µM): 0.024
Gal9 response compared to reference ([2]; EEE 1.25 µM): 0.021
Gal9 response compared to reference ([2]; EEE 2.5 µM): 0.020
Gal9 response compared to reference ([2]; EEE 5 µM): 0.032
Gal9 response compared to reference ([2]; EEE 10 µM): 0.097
Gal9 response compared to reference ([3]; EEE 0.31 µM): 0.005
Gal9 response compared to reference ([3]; EEE 0.62 µM): 0.004
Gal9 response compared to reference ([3]; EEE 1.25 µM): 0.004
Gal9 response compared to reference ([3]; EEE 2.5 µM): 0.003
Gal9 response compared to reference ([3]; EEE 5 µM): 0.007
Gal9 response compared to reference ([3]; EEE 10 µM): 0.023
Gal9 response compared to reference ([4]; EEE 0.31 µM): 0.008
Gal9 response compared to reference ([4]; EEE 0.62 µM): 0.007
Gal9 response compared to reference ([4]; EEE 1.25 µM): 0.008
Gal9 response compared to reference ([4]; EEE 2.5 µM): 0.009
Gal9 response compared to reference ([4]; EEE 5 µM): 0.006
Gal9 response compared to reference ([4]; EEE 10 µM): 0.007
Gal9 response compared to reference ([5]; EEE 0.31 µM): 0.010
Gal9 response compared to reference ([5]; EEE 0.62 µM): 0.007
Gal9 response compared to reference ([5]; EEE 1.25 µM): 0.011
Gal9 response compared to reference ([5]; EEE 2.5 µM): 0.015
Gal9 response compared to reference ([5]; EEE 5 µM): 0.012
Gal9 response compared to reference ([5]; EEE 10 µM): 0.046
Gal9 response compared to reference ([6]; EEE 0.31 µM): 0.019
Gal9 response compared to reference ([6]; EEE 0.62 µM): 0.018
Gal9 response compared to reference ([6]; EEE 1.25 µM): 0.013
Gal9 response compared to reference ([6]; EEE 2.5 µM): 0.014
Gal9 response compared to reference ([6]; EEE 5 µM): 0.015
Gal9 response compared to reference ([6]; EEE 10 µM): 0.038
Gal9 response compared to reference ([7]; EEE 0.31 µM): 0.014
Gal9 response compared to reference ([7]; EEE 0.62 µM): 0.015
Gal9 response compared to reference ([7]; EEE 1.25 µM): 0.012
Gal9 response compared to reference ([7]; EEE 2.5 µM): 0.013
Gal9 response compared to reference ([7]; EEE 5 µM): 0.044
Gal9 response compared to reference ([7]; EEE 10 µM): 0.421
Gal9 response compared to reference ([8]; EEE 0.31 µM): 0.014
Gal9 response compared to reference ([8]; EEE 0.62 µM): 0.011
Gal9 response compared to reference ([8]; EEE 1.25 µM): 0.010
Gal9 response compared to reference ([8]; EEE 2.5 µM): 0.014
Gal9 response compared to reference ([8]; EEE 5 µM): 0.023
Gal9 response compared to reference ([8]; EEE 10 µM): 0.072
Luciferase expression compared to reference ([9]; EEE 5 µM): 1.314
Luciferase expression compared to reference ([9]; EEE 1-1.25 µM): 0.743
Luciferase expression compared to reference ([9]; EEE 2.5 - 3 µM): 0.692
